From PubChem BioAssay AID1963838 (Molecular Pharmacology Branch, DTP, NCI, 2024)

System: 855422-203-R-J1-PDC complex spheroid viability
Assay: Anticancer human tumor 855422-203-R-J1-PDC patient-derived bladder carcinoma cell line growth inhibition [POLQ]
Conditions: for IC50: curve of first compound; for viability, T/C: stronger effect = lower value
Method in brief: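 PDC + HUVEC + MSC complex spheroids; POLQ inhibitors ± partner drugs; top conc. at/near clinical Cmax, else 10 microM (SN-38 1 microM), half-log dilutions; 37 degrees C, 5% CO2.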

[1] = second compound 0.0316 µM, first compound 0.00316 µM
[2] = second compound 0.0316 µM, first compound 0.01 µM
[3] = second compound 0.0316 µM, first compound 0.0316 µM
[4] = second compound 0.0316 µM, first compound 0.1 µM
[5] = second compound 0.1 µM, first compound 0.00316 µM
[6] = second compound 0.1 µM, first compound 0.01 µM
[7] = second compound 0.1 µM, first compound 0.0316 µM
[8] = second compound 0.1 µM, first compound 0.1 µM
[9] = second compound 0.316 µM, first compound 0.00316 µM
[10] = second compound 0.316 µM, first compound 0.01 µM
[11] = second compound 0.316 µM, first compound 0.0316 µM
[12] = second compound 0.316 µM, first compound 0.1 µM
[13] = second compound 1 µM, first compound 0.00316 µM
[14] = second compound 1 µM, first compound 0.01 µM
[15] = second compound 1 µM, first compound 0.0316 µM
[16] = second compound 1 µM, first compound 0.1 µM
[17] = second compound 3.16 µM, first compound 0.00316 µM
[18] = second compound 3.16 µM, first compound 0.01 µM
[19] = second compound 3.16 µM, first compound 0.0316 µM
[20] = second compound 3.16 µM, first compound 0.1 µM
[21] = second compound 10 µM, first compound 0.00316 µM
[22] = second compound 10 µM, first compound 0.01 µM
[23] = second compound 10 µM, first compound 0.0316 µM
[24] = second compound 10 µM, first compound 0.1 µM
[25] = second compound 0.0316 µM, first compound 0.316 µM
[26] = second compound 0.0316 µM, first compound 1 µM
[27] = second compound 0.1 µM, first compound 0.316 µM
[28] = second compound 0.1 µM, first compound 1 µM
[29] = second compound 0.316 µM, first compound 0.316 µM
[30] = second compound 0.316 µM, first compound 1 µM
[31] = second compound 1 µM, first compound 0.316 µM
[32] = second compound 1 µM, first compound 1 µM
[33] = second compound 3.16 µM, first compound 0.316 µM
[34] = second compound 3.16 µM, first compound 1 µM
[35] = second compound 10 µM, first compound 0.316 µM
[36] = second compound 10 µM, first compound 1 µM
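Also: spheroids exposed to compounds for seven days before readout.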

CC[C@@]1(O)C(=O)OCc2c1cc1n(c2=O)Cc2cc3c(CN(C)C)c(O)ccc3nc2-1 + Nc1ccc(C#CCN(C(=O)Cc2ncc(C(F)(F)F)cc2C(F)(F)F)c2ccc(F)cc2)nn1
IC50 (second compound 0.0316 µM): 57.2 nM
IC50 (second compound 0.1 µM): 66.7 nM
IC50 (second compound 0.316 µM): 62 nM
IC50 (second compound 1 µM): 59.7 nM
IC50 (second compound 3.16 µM): 66.4 nM
IC50 (second compound 10 µM): 64 nM
viability, T/C (second compound 0.0316 µM, first compound 0.000316 µM): 89.5%
viability, T/C (second compound 0.0316 µM, first compound 0.001 µM): 111%
viability, T/C [1]: 101%
viability, T/C [2]: 89.6%
viability, T/C [3]: 86.9%
viability, T/C [4]: 16.9%
viability, T/C (second compound 0.1 µM, first compound 0.000316 µM): 83.8%
viability, T/C (second compound 0.1 µM, first compound 0.001 µM): 129%
viability, T/C [5]: 102%
viability, T/C [6]: 98.4%
viability, T/C [7]: 99.3%
viability, T/C [8]: 23.3%
viability, T/C (second compound 0.316 µM, first compound 0.000316 µM): 91.8%
viability, T/C (second compound 0.316 µM, first compound 0.001 µM): 99%
viability, T/C [9]: 91.8%
viability, T/C [10]: 101%
viability, T/C [11]: 97.1%
viability, T/C [12]: 17.1%
viability, T/C (second compound 1 µM, first compound 0.000316 µM): 94.6%
viability, T/C (second compound 1 µM, first compound 0.001 µM): 88.5%
viability, T/C [13]: 109%
viability, T/C [14]: 114%
viability, T/C [15]: 83%
viability, T/C [16]: 23.1%
viability, T/C (second compound 3.16 µM, first compound 0.000316 µM): 92.8%
viability, T/C (second compound 3.16 µM, first compound 0.001 µM): 106%
viability, T/C [17]: 99.4%
viability, T/C [18]: 117%
viability, T/C [19]: 102%
viability, T/C [20]: 21.3%
viability, T/C (second compound 10 µM, first compound 0.000316 µM): 98.7%
viability, T/C (second compound 10 µM, first compound 0.001 µM): 93.7%
viability, T/C [21]: 97%
viability, T/C [22]: 100%
viability, T/C [23]: 95.3%
viability, T/C [24]: 21.2%

CCc1c2c(nc3ccc(O)cc13)-c1cc3c(c(=O)n1C2)COC(=O)[C@]3(O)CC + Nc1ccc(C#CCN(C(=O)Cc2ncc(C(F)(F)F)cc2C(F)(F)F)c2ccc(F)cc2)nn1
IC50 (second compound 0.0316 µM): 7.28 nM
IC50 (second compound 0.1 µM): 6.82 nM
IC50 (second compound 0.316 µM): 7.42 nM
IC50 (second compound 1 µM): 7.43 nM
IC50 (second compound 3.16 µM): 5.79 nM
IC50 (second compound 10 µM): 6.31 nM
viability, T/C [1]: 96.9%
viability, T/C [2]: 31.4%
viability, T/C [3]: 12.5%
viability, T/C [4]: 5.91%
viability, T/C [25]: 4.85%
viability, T/C [26]: 2.42%
viability, T/C [5]: 100%
viability, T/C [6]: 24.3%
viability, T/C [7]: 10.2%
viability, T/C [8]: 7.32%
viability, T/C [27]: 4.65%
viability, T/C [28]: 2.23%
viability, T/C [9]: 96.2%
viability, T/C [10]: 33.6%
viability, T/C [11]: 11.4%
viability, T/C [12]: 6.7%
viability, T/C [29]: 4.41%
viability, T/C [30]: 2.32%
viability, T/C [13]: 94.7%
viability, T/C [14]: 34.5%
viability, T/C [15]: 8.52%
viability, T/C [16]: 7.09%
viability, T/C [31]: 4.98%
viability, T/C [32]: 3.55%
viability, T/C [17]: 71.9%
viability, T/C [18]: 29.9%
viability, T/C [19]: 12.9%
viability, T/C [20]: 7.49%
viability, T/C [33]: 5.5%
viability, T/C [34]: 2.82%
viability, T/C [21]: 86.3%
viability, T/C [22]: 24.2%
viability, T/C [23]: 14.3%
viability, T/C [24]: 8.16%
viability, T/C [35]: 5.98%
viability, T/C [36]: 2.43%

COc1cc(C2c3cc4c(cc3C(OC3OC5COC(C)OC5C(O)C3O)C3COC(=O)C23)OCO4)cc(OC)c1O (stereo unspecified) + Nc1ccc(C#CCN(C(=O)Cc2ncc(C(F)(F)F)cc2C(F)(F)F)c2ccc(F)cc2)nn1
IC50 (second compound 0.0316 µM): 525 nM
IC50 (second compound 0.1 µM): 477 nM
IC50 (second compound 0.316 µM): 446 nM
IC50 (second compound 1 µM): 439 nM
IC50 (second compound 3.16 µM): 335 nM
IC50 (second compound 10 µM): 380 nM
viability, T/C [3]: 120%
viability, T/C [4]: 127%
viability, T/C [25]: 78.5%
viability, T/C [26]: 15%
viability, T/C (second compound 0.0316 µM, first compound 3.16 µM): 10%
viability, T/C (second compound 0.0316 µM, first compound 10 µM): 7.23%
viability, T/C [7]: 108%
viability, T/C [8]: 164%
viability, T/C [27]: 71.5%
viability, T/C [28]: 21%
viability, T/C (second compound 0.1 µM, first compound 3.16 µM): 8.67%
viability, T/C (second compound 0.1 µM, first compound 10 µM): 4.47%
viability, T/C [11]: 94.4%
viability, T/C [12]: 137%
viability, T/C [29]: 66.1%
viability, T/C [30]: 21.8%
viability, T/C (second compound 0.316 µM, first compound 3.16 µM): 10.4%
viability, T/C (second compound 0.316 µM, first compound 10 µM): 4.7%
viability, T/C [15]: 92.2%
viability, T/C [16]: 141%
viability, T/C [31]: 64.8%
viability, T/C [32]: 23.5%
viability, T/C (second compound 1 µM, first compound 3.16 µM): 10.1%
viability, T/C (second compound 1 µM, first compound 10 µM): 4.86%
viability, T/C [19]: 99.3%
viability, T/C [20]: 135%
viability, T/C [33]: 52%
viability, T/C [34]: 20.5%
viability, T/C (second compound 3.16 µM, first compound 3.16 µM): 10.7%
viability, T/C (second compound 3.16 µM, first compound 10 µM): 4.56%
viability, T/C [23]: 105%
viability, T/C [24]: 114%
viability, T/C [35]: 56.5%
viability, T/C [36]: 19.5%
viability, T/C (second compound 10 µM, first compound 3.16 µM): 11.1%
viability, T/C (second compound 10 µM, first compound 10 µM): 5.88%
